For 6 compounds, inhibition of growth, pest or weed control and MIC results are on record in patent US5112382A, “Halopropargyl compounds, compositions, uses and processes of preparation” (Rohm and Haas Company, priority 1990, dated 1992).

For one assay, the system named is Rhizoctonia solani. Nature of the assay: In-vitro plant fungicide test, RHI. The class given is cell-based. Conditions: read-out: % Control; for inhibition of growth at 25 ppm: rate 25 PPM; for inhibition of growth at 50 ppm: rate 50 PPM.
The next assay concerns Pythium ultimum. Nature of the assay: In-vitro plant fungicide test, PYU. The class given is cell-based. Conditions: Globisporangium ultimum, read-out: % Control; for inhibition of growth at 25 ppm: rate 25 PPM; for inhibition of growth at 50 ppm: rate 50 PPM.
A further assay deals with Xanthomonas campestris. The experiment in a line: In-vitro plant fungicide test, XAN. The class given is cell-based. Conditions: read-out: % Control; for inhibition of growth at 50 ppm: rate 50 PPM.
Assay [1] has as its system Erysiphe graminis (f. sp. tritici). The experiment in a line: whole plant or invertebrate. The class given is in vivo. The following applies: Blumeria graminis.
For assay [2], the system named is Piricularia oryzae. The experiment in a line: whole plant or invertebrate. Format: in vivo. The following applies: Pyricularia oryzae, 192 h, read-out: % Control.
The next assay concerns Cochliobolus sativus. The experiment in a line: In-vitro plant fungicide test, HEL. Format: cell-based. Conditions: Bipolaris sorokiniana, read-out: % Control; for inhibition of growth at 25 ppm: rate 25 PPM; for inhibition of growth at 50 ppm: rate 50 PPM.
The subject of a further assay is Phytophthora infestans. Nature of the assay: whole plant or invertebrate. The following applies: in Solanum lycopersicum, 96 h, read-out: % Control. The class given is in vivo.
The subject of assay [3] is Pseudoperonospora cubensis. The experiment in a line: whole plant or invertebrate. Format: in vivo. Conditions: in Cucumis sativus, 168 h.
The next assay deals with Aureobasidium pullulans. The experiment in a line: MIC, broth two-fold serial dilution test, Apul. The class given is cell-based. Conditions: read-out: Minimum Inhibitory Concentration (MIC). How it is done:
(§1) A minimum inhibitory concentration (MIC) value is obtained using a broth, two-fold serial dilution test performed as follows: […] A volume of the stock solution is dispensed into culture media to give an initial starting test concentration of 500 ppm compound. The test is carried out by adding and equal volume of broth to each vessel in the dilution series, except for the first vessel. The first vessel contains twice the volume of broth plus the initial concentration of test compound. One half of the broth from the first vessel is transferred to the second vessel. After being mixed, one half the resulting volume is removed from the second vessel and transferred to the third vessel. The entire cycle is repeated sufficiently to give a series of concentrations amounting to 500, 250, 125, 63, 31, 16, 8, and 4 ppm (or 100, 50, 25, 12.5, 6.2, 3.1, 1.6, and 0.8), respectively. Each vessel is then inoculated with a cell suspension of the appropriate test organism. Bacteria are grown in both and fungi on agar slats for a time and at a temperature appropriate to the species being tested. At the end of the growth period, the broth is vortexed to disperse the cells. In the case of fungi, the pores are harvested by pipetting water onto the slant and dislodging the spores with a sterile loop. The cell/spore suspension is standardized by controlling incubation time, temperature, and the volume of the diluent. The suspension is then used to inoculate the vessels containing the broth compound. The vessels are then incubated at the appropriate temperature. After the incubation, the vessels are examined for growth/no growth. The minimum inhibitory concentration (MIC) is defined as the lowest concentration of compound that results in complete inhibition of growth of the test organism.

Another assay has as its system Septoria nodorum. The experiment in a line: In-vitro plant fungicide test, SEP. The class given is cell-based. Conditions: Parastagonospora nodorum, read-out: % Control; for inhibition of growth at 25 ppm: rate 25 PPM; for inhibition of growth at 50 ppm: rate 50 PPM.
A further assay concerns Pseudomonas aerugenosa. The experiment in a line: MIC, broth two-fold serial dilution test, Psae. The class given is cell-based. The following applies: read-out: Minimum Inhibitory Concentration (MIC). How it is done: as §1
Another assay relates to Staphylococcus aureus. Nature of the assay: MIC, broth two-fold serial dilution test, Saur. The class given is cell-based. The following applies: read-out: Minimum Inhibitory Concentration (MIC). How it is done:
as §1

The test system of assay [4] is Piricularia oryzae. The experiment in a line: microbe, parasite or virus in culture. The class given is cell-based. The following applies: read-out: % Control.
Another assay deals with Aspergillus niger. Nature of the assay: MIC, broth two-fold serial dilution test, Anig. Conditions: read-out: Minimum Inhibitory Concentration (MIC). Format: cell-based. How it is done: as §1
A further assay concerns Botrytis cinerea. Nature of the assay: In-vitro plant fungicide test, BOC. Conditions: read-out: % Control.
Assay [5] concerns Puccinia recondita (f. sp. tritici Races PKB and PLD). The experiment in a line: whole plant or invertebrate. The class given is in vivo. Conditions: 240 h.
The next assay deals with Escherichia coli. Nature of the assay: MIC, broth two-fold serial dilution test, Ecol. The class given is cell-based. Conditions: read-out: Minimum Inhibitory Concentration (MIC). How it is done:
as §1

In the next assay the test system is Pseudomonas fluorescens. The experiment in a line: MIC, broth two-fold serial dilution test, Psfl. Format: cell-based. The following applies: read-out: Minimum Inhibitory Concentration (MIC). On the procedure:
as §1

The next assay deals with Fusarium roseum. Nature of the assay: microbe, parasite or virus in culture. Conditions: Fusarium sambucinum, read-out: % Control.
Another assay has as its system Phytophthora capsici. Nature of the assay: In-vitro plant fungicide test, PHY. The following applies: read-out: % Control; for inhibition of growth at 25 ppm: rate 25 PPM; for inhibition of growth at 50 ppm: rate 50 PPM. Format: cell-based.
In assay [6] the test system is Septoria glume blotch of wheat. Nature of the assay: whole plant or invertebrate. Format: in vivo. Conditions: Triticum aestivum.

Values after ≈ are worked out from the molar mass of the structure shown. Like-named read-outs stand apart in the source and are kept apart here.

Regarding `CCOC(=O)N(CC#CBr)N=Cc1ccc(Cl)c(Cl)c1` [Compound 14, N'-Ethoxycarbonyl-N'-3-bromopropargyl 3,4-dichlorobenzaldehyde hydrazone], the inhibition of growth at 25 ppm in the assay on Rhizoctonia solani was 50%; in the assay on Pythium ultimum, 0%; in the assay on Xanthomonas campestris (XAN, rate 25 PPM), 0%; in the assay on Cochliobolus sativus, 0%; in the assay on Septoria nodorum, 0%; in the assay on Piricularia oryzae [4], 0%. Further, the inhibition of growth at 25 ppm in the assay on Botrytis cinerea, in the assay on Fusarium roseum and in the assay on Phytophthora capsici was 0% throughout. The pest or weed control at 200 ppm stood at 85% in [1]; 0% in the assay with Piricularia oryzae [2]; 0% in the assay on Phytophthora infestans; 0% in assay [3]; 0% in assay [5]; 0% in assay [6]. Moreover, the MIC in the assay with Aureobasidium pullulans, in the assay with Pseudomonas aerugenosa, in the assay with Staphylococcus aureus, with Aspergillus niger, with Escherichia coli and in the assay on Pseudomonas fluorescens was over 100 µg/mL in each case.

With `COC(=O)N(CC#CBr)N=Cc1ccc(F)cc1` [Compound 7, N'-Methoxycarbonyl-N'-3-bromopropargyl 4-fluorobenzaldehyde hydrazone], the inhibition of growth at 25 ppm in the assay on Rhizoctonia solani came out at 0%; in the assay with Pythium ultimum, 0%; in the assay with Xanthomonas campestris, 0%; in the assay on Cochliobolus sativus, 0%; in the assay on Septoria nodorum it was 100%; in the assay on Piricularia oryzae [4] it was 0%. Besides, the inhibition of growth at 25 ppm in the assay on Botrytis cinerea, in the assay on Fusarium roseum and with Phytophthora capsici was 0% in each case. Also, the inhibition of growth at 50 ppm with Rhizoctonia solani was 0%; in the assay on Pythium ultimum, 100%; in the assay with Xanthomonas campestris (XAN), 0%; in the assay on Cochliobolus sativus, 0%; with Septoria nodorum it was 0%; in the assay with Piricularia oryzae [4], 90%. Besides, the inhibition of growth at 50 ppm in the assay with Botrytis cinerea is 0%; with Fusarium roseum, 0%; in the assay with Phytophthora capsici it was 90%. Besides, the pest or weed control at 200 ppm (in assay [1]; in the assay on Piricularia oryzae [2]; in the assay with Phytophthora infestans; in [3]; in [5]; in assay [6]) was 0% each time. For the same compound, the MIC in the assay on Aureobasidium pullulans stood at 31 µg/mL (≈ 99 µM); in the assay on Pseudomonas aerugenosa it was 31 µg/mL (≈ 99 µM); with Staphylococcus aureus, 63 µg/mL (≈ 201 µM); in the assay with Aspergillus niger, 31 µg/mL (≈ 99 µM); in the assay with Escherichia coli, 125 µg/mL (≈ 399 µM); with Pseudomonas fluorescens, 125 µg/mL (≈ 399 µM).

Turning to `COC(=O)N(CC#CI)N=Cc1ccc(F)cc1` [Compound 10, N'-Methoxycarbonyl-N'-3-iodopropargyl 4-fluorobenzaldehyde hydrazone], the inhibition of growth at 50 ppm with Rhizoctonia solani worked out at 100%; with Pythium ultimum, 100%; in the assay on Xanthomonas campestris (XAN), 0%; in the assay on Cochliobolus sativus, 100%; in the assay on Septoria nodorum it was 100%; with Piricularia oryzae [4] it was 100%. The inhibition of growth at 50 ppm in the assay with Botrytis cinerea was 0%; in the assay with Fusarium roseum, 100%; in the assay with Phytophthora capsici it was 100%. Further, the pest or weed control at 200 ppm was found to be 50% in [1]; 50% with Piricularia oryzae [2]; 0% with Phytophthora infestans; 50% in assay [3]; 0% in assay [5]; 0% in assay [6]. The MIC in the assay on Aureobasidium pullulans is under 4 µg/mL; in the assay on Pseudomonas aerugenosa it was over 500 µg/mL; in the assay on Staphylococcus aureus, under 4 µg/mL; in the assay with Aspergillus niger, under 4 µg/mL; in the assay with Escherichia coli, over 500 µg/mL; in the assay with Pseudomonas fluorescens it was over 500 µg/mL.

As for `COC(=O)N(CC#CI)N=Cc1cc(Cl)cc(Cl)c1` [Compound 15, N'-Methoxycarbonyl-N'-3-iodopropargyl 3,5-dichlorobenzaldehyde hydrazone], the inhibition of growth at 25 ppm is 75% in the assay with Rhizoctonia solani; 0% in the assay on Pythium ultimum; 0% in the assay with Xanthomonas campestris (XAN, rate 25 PPM); 50% with Cochliobolus sativus; 0% with Septoria nodorum; 100% with Piricularia oryzae [4]. Moreover, the inhibition of growth at 25 ppm in the assay with Botrytis cinerea is 0%; in the assay with Fusarium roseum it was 75%; in the assay with Phytophthora capsici, 0%. The pest or weed control at 200 ppm (in assay [1]; with Piricularia oryzae [2]; in the assay with Phytophthora infestans; in [3]; in assay [5]; in assay [6]) was 0% throughout. Moreover, the MIC with Aureobasidium pullulans, in the assay on Pseudomonas aerugenosa, with Staphylococcus aureus, in the assay with Aspergillus niger, in the assay on Escherichia coli and with Pseudomonas fluorescens was over 100 µg/mL throughout.

Take `COC(=O)N(CC#CBr)N=Cc1cc(Cl)cc(Cl)c1` [Compound 16, N'-Methoxycarbonyl-N'-3-bromopropargyl 3,5-dichlorobenzaldehyde hydrazone]: the inhibition of growth at 25 ppm with Rhizoctonia solani was found to be 0%; with Pythium ultimum, 0%; in the assay with Xanthomonas campestris (XAN, rate 25 PPM), 0%; in the assay with Cochliobolus sativus it was 0%; in the assay on Septoria nodorum, 0%; with Piricularia oryzae [4], 0%. The inhibition of growth at 25 ppm in the assay with Botrytis cinerea, with Fusarium roseum and in the assay on Phytophthora capsici was 0% each time. For the same compound, the pest or weed control at 200 ppm (in [1]; in the assay with Piricularia oryzae [2]; in the assay with Phytophthora infestans; in assay [3]; in assay [5]; in assay [6]) was 0% in each case. Moreover, the MIC with Aureobasidium pullulans, with Pseudomonas aerugenosa, in the assay on Staphylococcus aureus, with Aspergillus niger, with Escherichia coli and with Pseudomonas fluorescens was over 100 µg/mL in each case.

As to `CCOC(=O)N(CC#CI)N=Cc1ccc(Cl)c(Cl)c1` [Compound 13, N'-Ethoxycarbonyl-N'-3-iodopropargyl 3,4-dichlorobenzaldehyde hydrazone], the inhibition of growth at 25 ppm in the assay with Rhizoctonia solani was 90%; in the assay with Pythium ultimum it was 0%; in the assay with Xanthomonas campestris (XAN, rate 25 PPM) it was 0%; with Cochliobolus sativus, 50%; with Septoria nodorum it was 50%; in the assay with Piricularia oryzae [4] it was 100%. Besides, the values for the inhibition of growth at 25 ppm with Botrytis cinerea, in the assay on Fusarium roseum and in the assay with Phytophthora capsici were 0%, 75% and 0%, respectively. The pest or weed control at 200 ppm in assay [1] worked out at 50%; with Piricularia oryzae [2], 0%; in the assay on Phytophthora infestans, 0%; in assay [3], 85%; in [5], 50%; in assay [6], 0%. In addition, the MIC in the assay on Aureobasidium pullulans is over 100 µg/mL; with Pseudomonas aerugenosa, over 100 µg/mL; in the assay with Staphylococcus aureus, over 100 µg/mL; with Aspergillus niger it was 100 µg/mL (≈ 235 µM); in the assay on Escherichia coli, over 100 µg/mL; in the assay with Pseudomonas fluorescens it was over 100 µg/mL.
